{
  "source": "patent US11434243B2",
  "about": "“Triazoloquinazolinone synthesis” (priority 2017, dated 2022)",
  "origin": "cited, not measured here",
  "key": {"[1]": {"system": "benzodiazepine site of the GABAA receptor complex"}, "[2]": {"details": "qualitative; complicates purification"}},
  "data": [
    {"smiles": "Cc1ccc(-n2nc3c4cc(Cc5ccccc5)ccc4[nH]c(=O)n3c2=O)cc1", "note": "[Compound 12, 9-benzyl-2-(4-methylphenyl)-2,6-dihydro[1,2,4]triazolo[4,3-c]quinazoline-3,5-dione]", "values": [
      {"measurement": "potency relative to diazepam in displacing 3H-Flumazenil", "setting": "[1]; fold more potent than diazepam", "result": 10, "unit": "times"},
      {"measurement": "inhibition of the binding of 3H-Flumazenil to the benzodiazepine site of the GABAA receptor complex", "setting": "[1]; rat membrane preparations, result in words", "result": "very potent inhibitor"},
      {"measurement": "selectivity for the GABAA receptor complex", "setting": "[1]; result in words", "result": "selective for the GABAA receptor complex"},
      {"measurement": "solubility", "setting": "[2]", "result": "low solubility"}
    ]}
  ]
}
